Measurements published in paper PMC7838189, “Natural podophyllotoxin analog 4DPG attenuates EMT and colorectal cancer progression via activation of checkpoint kinase 2” (Cell Death Discovery, 2021).

How the values were obtained:
SW-620/5-FU-R cells = experiment: Cellular fractionation and western blotting of p53 and Vimentin; assay type: cell-based; conditions: 300 nM, 48 h, vs vehicle
Protocol: (§1) Fig. 3 Chk2-dependent role of 4DPG in modulating p53 and repressing Vimentin expression in 5-FU-R cells. A Immunocytochemistry results showing the Vimentin expression level in SW-620/5-FU-R cells treated/transfected with scramble, SiChk2, scramble plus 4DPG, SiChk2 plus 4DPG, vehicle, PV1019, 4DPG, and PV1019 plus 4DPG for 48 h. Scale bars: 50 µm. […] C Matrigel invasion assay results showing invaded HCT-116/5-FU-R and SW-620/5-FU-R cells following 48 h of transient transfection with GFP and GFP-Chk2 plasmid construct. Scale bars: 50 µm. D Quantification of the number of invaded cells per field from the above experimental conditions. n = 3, error bars, mean ± SD; *P < 0.05, ***P < 0.001. E Immunocytochemistry results displaying Vimentin expression levels in HCT-116/5-FU-R and SW-620/5-FU-R cells after 48 h of transient transfection with pCDNA3 and/or HA-Chk2 plasmid construct. Scale bars: 50 µm. F Immunoprecipitation with Vimentin or p53 followed by western blotting analysis of p53 in SW-620/5-FU-R cells treated with vehicle and/or 4DPG (300 nM) for 48 h. G Cytosolic (left panel) and nuclear (right panel) extracts of SW-620/5-FU-R cells treated with vehicle and/or 4DPG (300 nM) for 48 h showing protein expression of Vimentin and p53. Tubulin and lamin expression was considered as endogenous loading controls for cytosolic and nuclear fractions, respectively.
Moreover, to gain mechanistic insights into how 4DPG-induced activation of Chk2 suppresses EMT and invasiveness, we examined the downstream substrates of Chk2. Tumor suppressor p53 acts as a direct substrate of Chk2 that regulates cell cycle, DNA repair, or apoptosis of cancer cells in response to DNA damage[27],[39]. We attempted to investigate whether there any molecular interaction takes place between Vimentin and p53 in these 5-FU-R cells. Our immunoprecipitation analysis unveiled that 4DPG potentially interrupted the association of Vimentin and p53 in SW-620/5-FU-R cells. […] Since 4DPG disrupted the Vimentin–p53 association, we were curious to see the consequences on p53 expression in various cellular compartments. We separated cytosolic and nuclear fractions of SW-620/5-FU-R cells treated with vehicle and/or 4DPG and conducted western blotting analysis considering relevant loading controls.
SW-620/5-FU-R cells seeded in 90-mm Petri dishes were treated with vehicle and/or 4DPG for 48 h, following overnight incubation. Cells were then harvested, washed with PBS; cytosolic and nuclear extracts were prepared following our established protocol[37],[56].

[1] = tested on: tumor tissues of orthotopic rat colorectal carcinoma; experiment: Immunohistochemical analysis of tumor tissues; assay type: in vivo, Wistar rats; conditions: 25 mg/kg, vs saline-treated group
Protocol: The procedure was performed following our pre-standardized protocol with minor modifications. Paraffin-embedded tissue sections were prepared from the tumors of saline, 5-FU, and 4DPG-treated groups of animals. Primary antibodies used: p-Chk2 (T68), Chk2, p53, p-Vimentin (S38) and Vimentin at 1:150 dilution for overnight at 4 °C.

[2] = tested on: Vimentin–p53 association in SW-620/5-FU-R cells; experiment: Immunoprecipitation of Vimentin and p53; assay type: cell-based; conditions: 300 nM, 48 h, vs ample p53 in vehicle
Protocol: as §1, with “G Cytosolic (left panel) and nuclear (right panel) extracts of SW-620/5-FU-R cells treated with vehicle and/or 4DPG (300 nM) for 48 h showing protein expression of Vimentin and p53. Tubulin and lamin expression was considered as endogenous loading controls for cytosolic and nuclear fractions, respectively.” left out
For immunoprecipitation analysis, the previously described procedure was followed with minor modification. […] Following careful washing with lysis buffer, the immunoprecipitates were analyzed by western blotting.

[3] = Distribution coefficient determination; assay type: physicochemical; conditions: pH 7.4
Protocol: Solubility and distribution coefficient are among the major physicochemical properties of a drug that greatly determine its absorption in physiological compartments. […] The distribution coefficient (logD, pH 7.4) of 4DPG was determined to be 0.815 ± 0.19, which indicates the slightly lipophilic nature of the molecule. For administration to animals, the appropriate quantity of 4DPG was formulated in the pre-calculated volume of saline with the help of a solubilizer (Tween-80). Next, to assess the hemocompatibility of 4DPG and establish if the compound could be considered safe for intravenous (i.v.) administration, we performed in vitro hemolysis assay by incubating the RBCs with increasing concentrations of the molecule.
The distribution coefficient, solubility, and hemocompatibility of 4DPG was determined adopting our previously described protocol[37],[40]. For hemolysis assay, increasing concentrations (5, 10, and 20 µg/mL) of 4DPG were employed. Distilled water (DW) and PBS were considered as […].

COc1cc([C@@H]2c3cc4c(cc3C[C@H]3COC(=O)[C@@H]32)OCO4)cc(OC)c1O[C@@H]1O[C@H](CO)[C@@H](O)[C@H](O)[C@H]1O [4DPG, 4′-demethyl-deoxypodophyllotoxin glucoside]
augmentation in p53 expression, cytosolic fraction (SW-620/5-FU-R cells): 1.65 fold
decrease in Vimentin level, nuclear fraction (SW-620/5-FU-R cells): 20 fold
downregulation of Vimentin level, cytosolic fraction (SW-620/5-FU-R cells): 2.2 fold
increase in p53, nuclear fraction (SW-620/5-FU-R cells): 2.2 fold
p-Vimentin (ser38) and Vimentin expression levels in tumor tissues (immunohistochemistry) [1]: decreased
protein levels of p-Chk2 (Thr68) and p53 in tumor tissues (immunohistochemistry) [1]: marked increase
p53 detected in Vimentin pull-down lysates [2]: negligible p53 expression
distribution coefficient (logD) [3]: 0.815 ± 0.19
